Laboratory results as given in US20050049201A1, “Detection and removal of lead using lead-binding proteins” (priority 2001, published 2005).

Key:
[1] = Solid phase assay for lead: protein on nitrocellulose with chromogenic dye; conditions: combined results, various buffers, pH, salts and dyes
Description: A solid phase assay for the detection of lead was also developed using one or more synthetically produced lead-binding proteins. Both TB4 and ACBP and the various mutants that have been generated from them can be used in this assay. The experiment is performed by binding the protein to a solid surface support, such as nitrocellulose paper, cotton, glass microfibers, or polystyrene beads using, for example, methods described herein. Then the sample to be tested, such as saliva or blood, is placed onto the surface and allowed to react with the protein. After washing with buffer, or example a neutral non-chelating buffer to remove any unreacted material, the sample is treated with a ligand that can detect a lead-leading binding protein complex, for example, a ligand that can cause a color chance upon detecting a lead-protein complex. Examples of such ligands include, sodium sulfide and sodium rhodizonic acid. Furthermore, the concentration of the lead in the sample being tested may be determined by the intensity of the spot produced upon binding of the dye. […]
As a control, the assay was tested using solutions containing several different buffers, pH conditions, and salts for reaction with the sodium sulfide and sodium rhodizonic acid dyes used. […] The pH was determined empirically for rhodizonic acid over a range of pH 4 to pH 8. […]

[2] = lead binding; Quintanilla-Vega 1995, Smith 1998; read-out: dissociation constant (Kd) of high affinity lead-binding region; cited from earlier work

For “thymosin beta-4 (MSDKPDMAEIEKFDKSKLKKTETQEKNPLPSKETIEQEKQAGES; listed as Homo sapiens) [TB4]”, the “performance of solid phase lead detection assay” value [1] is given as “works well under various conditions” and the Kd [2] is given as about 1 nM.
